Data published in publication PMC8899516, “Structure-Activity Relationship Studies of 4-((4-(2-fluorophenyl)piperazin-1-yl)methyl)-6-imino-N-(naphthalen-2-yl)-1,3,5-triazin-2-amine (FPMINT) Analogues as Inhibitors of Human Equilibrative Nucleoside Transporters” (Frontiers in Pharmacology, 2022).

Key:
PK15NTD/ENT1 cells = experiment: Cell viability, MTT assay; assay type: cell-based, porcine; conditions: 50 µM, 24 or 48 h
Description: (§1) PK15NTD/ENT1 and PK15NTD/ENT2 cells were seeded onto 96-well plates until they reached 80–90% confluent. The cells were then treated with different concentrations of compound 3c or an equivalent volume of a vehicle (0.5% dimethyl sulfoxide (DMSO), as a control) in a serum-free medium for another 24 or 48 h. For measuring cell membrane integrity, the lactate dehydrogenase (LDH) released into the culture medium was measured with a detection kit (Abcam, Cambridge, UK) according to the manufacturer’s instructions. The absorbance at 490 nm was measured with a microplate absorbance reader. For measuring cell viability, 0.5 mg/ml methylthiazolyldiphenyl-tetrazolium bromide (MTT) was added to each well. […] The absorbance was measured at 560 nm, with the absorbance at 655 nm serving as the background.
(§2) FIGURE 5 Effects of compound 3c on cytotoxicity and protein expressions of ENT1 and ENT2. Cytotoxicity of compound 3c was measured after 24 h or 48 h treatment of PK15NTD/ENT1 and PK15NTD/ENT2 cells with various concentrations of compound 3c (0.5, 5 and 50 μM) or a vehicle (0.5% DMSO, as a control) (A) The cell viability and (B) cell membrane integrity were determined by the MTT assay and LDH release, respectively (C) PK15NTD/ENT1 and (D) PK15NTD/ENT2 cells were incubated with 50 μM of compound 3c or a vehicle (0.5% DMSO, as a control) for 24 or 48 h. […]

PK15NTD/ENT2 cells = experiment: Cell viability, MTT assay; assay type: cell-based, porcine; conditions: 50 µM, 24 or 48 h
Description: as §1, §2

ENT1 = experiment: Western blotting of ENT1 protein expression; assay type: cell-based, human; conditions: 50 µM, 24 h or 48 h
Description: (§3) PK15NTD/ENT1 and PK15NTD/ENT2 cells were grown to confluence in 10-cm culture dishes and treated with 50 µM of compound 3c or an equivalent volume of a vehicle (0.5% DMSO) for 24 h or 48 h. The cells were washed thrice with ice-cold PBS. Total protein was extracted by cell lysis in a lysis buffer (5 mM sodium monophosphate, pH 8) with a protease inhibitor cocktail (Sigma, St Louis, MO, United States; 1:1,000 [v/v]). The protein content was measured by bicinchoninic acid assay. Protein samples were separated by 12.5% sodium dodecyl sulfate–polyacrylamide gel electrophoresis (SDS-PAGE) and blotted onto polyvinylidene difluoride (PVDF) membranes. […] The membranes were then again washed, and the bound secondary antibodies were detected using an enhanced chemiluminescence kit (Bio-Rad, Hercules, CA, United States). […] To semi-quantify the ENT1 and ENT2 protein levels, the same membranes were washed three times with a stripping buffer for 10 min at room temperature, and the protein expression level of β-actin was measured using monoclonal mouse anti-β-actin primary antibodies (1:3,000 [v/v] dilution in a blocking solution). […]
(§4) FIGURE 5 Effects of compound 3c on cytotoxicity and protein expressions of ENT1 and ENT2. […] Total ENT1 and ENT2 from whole-cell lysates were also detected for a comparison. β-actin served as an internal reference. […]

ENT2 [1] = experiment: Western blotting of ENT2 protein expression; assay type: cell-based, human; conditions: 50 µM, 24 h or 48 h
Description: as §3, §4

ENT2 [2] = biological target: T1, ENT2 (Homo sapiens, UniProt Q14542); experiment: Wash-out reversibility of [3H]uridine uptake inhibition in PK15NTD/ENT2 cells; assay type: cell-based; conditions: 50 µM, incubation 1–60 min, washed five times
T1 construct: expressed in transfected cells
T1 sequence (Q14542 1-456): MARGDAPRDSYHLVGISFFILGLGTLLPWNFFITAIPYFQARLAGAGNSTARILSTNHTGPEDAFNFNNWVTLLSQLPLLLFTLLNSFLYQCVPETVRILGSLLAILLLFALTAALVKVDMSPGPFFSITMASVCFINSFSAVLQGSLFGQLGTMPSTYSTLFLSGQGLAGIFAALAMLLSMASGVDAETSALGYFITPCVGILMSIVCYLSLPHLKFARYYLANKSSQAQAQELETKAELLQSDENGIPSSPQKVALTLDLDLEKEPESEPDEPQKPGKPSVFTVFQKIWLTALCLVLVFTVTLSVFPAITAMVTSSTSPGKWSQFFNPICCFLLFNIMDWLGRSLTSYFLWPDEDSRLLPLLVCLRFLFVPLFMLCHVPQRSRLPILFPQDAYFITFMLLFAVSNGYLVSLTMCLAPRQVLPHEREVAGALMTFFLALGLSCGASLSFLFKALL
Description: To determine whether the inhibitory effects of compound 3c were reversible or irreversible, PK15NTD/ENT1 and PK15NTD/ENT2 cells were incubated with 50 µM of compound 3c for different time periods (1–60 min). The cells were then washed five times with buffer. After wash-out for every single time [^3H]uridine uptake was measured. […] The longer the incubation time with compound 3c, the more difficult it was to wash-out the inhibitory effects of compound 3c.
FIGURE 6 Reversibility of the inhibitory effects of compound 3c on ENT1 and ENT2 (A) PK15NTD/ENT1 and (B) PK15NTD/ENT2 cells were incubated with 50 μM of compound 3c or a vehicle (0.5% DMSO, as a control) for different time (0–60 min) The cells were then washed five times. After wash-out for every single time [^3H]uridine uptake (1 μM, 2 μCi/ml) was measured. Data are presented as mean ± SE of three experiments. ^* p < 0.05 compared with the fifth wash.

## Cc1cccc(Nc2nc(N)nc(CN3CCN(c4ccc(F)cc4)CC3)n2)c1 [Compound 3c]
PK15NTD/ENT1 cells
  cell viability: No significant changes
PK15NTD/ENT2 cells
  cell viability: No significant changes
ENT1
  protein expression level of ENT1: unaltered
ENT2 [1]
  protein expression level of ENT2: unaltered
ENT2 [2]
  reversibility of inhibitory effect on ENT2 by washing: only partially reversed by washing
